Patent US12686687B2, “Compounds and uses thereof” (Foghorn Therapeutics Inc., priority 2019, dated 2026)
Like-named read-outs stand apart in the source and are kept apart here.

Molecular target: T1, Nanoluciferase-BRD9 fusion protein (3×FLAG-NLuc-BRD9) in SYO-1 cells (Homo sapiens, UniProt Q9H8M2)
T1 construct: expressed in transfected cells; host or cells: SYO-1
T1 sequence (Q9H8M2 1-597): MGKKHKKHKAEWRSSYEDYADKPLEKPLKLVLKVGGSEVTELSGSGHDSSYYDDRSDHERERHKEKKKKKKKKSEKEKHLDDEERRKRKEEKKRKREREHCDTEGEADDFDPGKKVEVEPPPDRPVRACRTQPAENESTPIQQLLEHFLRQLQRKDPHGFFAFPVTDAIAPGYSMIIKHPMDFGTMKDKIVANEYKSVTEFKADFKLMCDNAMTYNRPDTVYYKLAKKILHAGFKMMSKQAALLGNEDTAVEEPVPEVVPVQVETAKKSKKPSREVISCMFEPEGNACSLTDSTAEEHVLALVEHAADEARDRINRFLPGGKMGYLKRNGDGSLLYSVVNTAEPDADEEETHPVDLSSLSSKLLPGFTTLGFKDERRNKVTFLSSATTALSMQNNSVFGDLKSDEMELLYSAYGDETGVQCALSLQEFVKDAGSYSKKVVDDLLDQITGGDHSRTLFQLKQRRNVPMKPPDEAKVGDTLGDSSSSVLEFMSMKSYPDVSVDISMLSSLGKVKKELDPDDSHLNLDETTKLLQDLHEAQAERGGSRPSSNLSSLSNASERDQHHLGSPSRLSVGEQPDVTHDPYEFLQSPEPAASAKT
Assay: SYO1 BRD9 NanoLuc degradation assay
Assay type: cell-based
Settings: SYO-1 cells expressing 3×FLAG-NLuc-BRD9, 6 hours incubation, 1 μM top dose, read-out: SYO1 BRD9-NanoLuc degradation IC50
Summary of the method: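 Stable SYO-1 line expressing 3×FLAG-NLuc-BRD9 was seeded at 8000 cells/well, then treated next day for 6 h with 10-point 3-fold dilutions (top 1 μM final). Nano-Glo luminescence was read. % inhibition was normalised to DMSO (high control) and 1 μM reference BRD9 degrader (low control).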

Q: With `COc1cc(-c2cn(C)c(=O)c3cc(C(=O)NC4CCN(c5ccc6c(c5)C(=O)N(C5CCC(=O)NC5=O)C6)CC4(F)F)oc23)cc(OC)c1CN(C)C` (stereo not drawn) [Compound D218] as the compound, how does the DC50 (Table 6C) read?
A: > 10 nM

Q: `COc1cc(-c2cn(C)c(=O)c3ccsc23)cc(OC)c1CN1CC(C#Cc2ccc3c(c2)C(=O)N(C2CCC(=O)NC2=O)C3)C1` (stereo not drawn) [Compound D92] was tested. Which DC50 (Table 6C) did it give?
A: < 10 nM

Q: For `COc1cc(-c2cn(C)c(=O)c3cc(C(C)C)sc23)cc(OC)c1CN1CCC2(CC1)CN(c1ccc3c(c1)C(=O)N(C1CCC(=O)NC1=O)C3)C2` (stereo not drawn) [Compound D110], which DC50 (Table 6C) is on record?
A: < 10 nM

Q: With `COc1cc(-c2cn(C)c(=O)c3cc(C(=O)NC4CCC5CN(C(=O)CCN6CCN(c7ccc8c(c7)C(=O)N(C7CCC(=O)NC7=O)C8=O)CC6)CC54)sc23)cc(OC)c1CN(C)C` (stereo not drawn) [Compound D58] as the compound, how does the DC50 (Table 6B) read?
A: > 10 nM

Q: How did the DC50 (Table 6C) turn out when `COc1cc(-c2cn(C)c(=O)c3cc(C(=O)NC4CN(c5ccc6c(c5)C(=O)N(C5CCC(=O)NC5=O)C6)CC4(F)F)sc23)cc(OC)c1CN(C)C` (stereo not drawn) [Compound D177] was run?
A: < 10 nM

Q: For `COc1cc(OC)cc(-c2cn(C)c(=O)c3cc(C(=O)NC4CCN(c5cccc(OC6CCC(=O)NC6=O)c5)CC4)sc23)c1` (stereo not drawn) [Compound D96], which DC50 (Table 6C) is on record?
A: < 10 nM

Q: How did the DC50 (Table 6C) turn out when `COc1cc(-c2cn(C)c(=O)c3cc(C#N)sc23)cc(OC)c1CN1CC(C#Cc2ccc3c(c2)C(=O)N(C2CCC(=O)NC2=O)C3)C1` (stereo not drawn) [Compound D91] was run?
A: < 10 nM

Q: Which DC50 (Table 6B) does the source give for `COc1cc(-c2cn(C)c(=O)c3cc(C(=O)NC4CCN(C(=O)CN5CCC6(CC5)CN(c5ccc7c(c5)C(=O)N(C5CCC(=O)NC5=O)C7=O)C6)CC4(F)F)sc23)cc(OC)c1CN(C)C` (stereo not drawn) [Compound D46] here?
A: < 10 nM

Q: Which DC50 (Table 6C) does the source give for `CCc1cc(-c2cn(C)c(=O)c3cc(C(=O)NC4CCN(C5CCN(c6ccc7c(c6)C(=O)N(C6CCC(=O)NC6=O)C7)CC5)CC4(F)F)sc23)cc(OC)c1CN(C)C` (stereo not drawn) [Compound D157] here?
A: < 10 nM

Q: For `COc1cc(-c2cn(C)c(=O)c3cc(C(=O)NCC4CC5CN(CCCN6CCN(c7ccc8c(c7)C(=O)N(C7CCC(=O)NC7=O)C8=O)CC6)CC5C4)sc23)cc(OC)c1CN(C)C` (stereo not drawn) [Compound D42], which DC50 (Table 6B) is on record?
A: < 10 nM

Q: For `COc1cc(-c2cn(C)c(=O)c3cc(C(=O)NC4CCN(CCCCN5CCN(c6ccc7c(c6)C(=O)N(C6CCC(=O)NC6=O)C7=O)CC5)CC4)sc23)cc(OC)c1CN(C)C` (stereo not drawn) [Compound D86], which DC50 (Table 6B) is on record?
A: < 10 nM

Q: For `CCc1cc(OC)cc(-c2cn(C)c(=O)c3cc(C(=O)NC4CCN(c5ccc6c(c5)C(=O)N(C5CCC(=O)NC5=O)C6)CC4(F)F)sc23)c1` (stereo not drawn) [Compound D129], which DC50 (Table 6C) is on record?
A: < 10 nM

Q: For `COc1cc(-c2cn(C)c(=O)c3cc(C(=O)NC4CC5CN(C(=O)CCN6CCN(c7ccc8c(c7)C(=O)N(C7CCC(=O)NC7=O)C8=O)CC6)CC5C4)sc23)cc(OC)c1CN(C)C` (stereo not drawn) [Compound D76], which DC50 (Table 6B) is on record?
A: > 10 nM

Q: For `COc1cc(-c2cn(C)c(=O)c3cc(C(=O)NC4CCN(c5ccc6c(c5)C(=O)N(C5CCC(=O)NC5=O)C6)CC4)sc23)cc(OC)c1CN(C)C` (stereo not drawn) [Compound D146], which DC50 (Table 6C) is on record?
A: < 10 nM

Q: For `COc1cc(-c2cn(C)c(=O)c3cc(C(=O)NC4CCN(CCN5CCN(c6ccc7c(c6)C(=O)N(C6CCC(=O)NC6=O)C7)CC5)CC4(F)F)sc23)cc(OC)c1CN(C)C` (stereo not drawn) [Compound D200], which DC50 (Table 6C) is on record?
A: < 10 nM

Q: How did the DC50 (Table 6C) turn out when `COc1cc(-c2cn(C)c(=O)c3scnc23)cc(OC)c1CN1CCC2(CC1)CN(c1ccc3c(c1)C(=O)N(C1CCC(=O)NC1=O)C3)C2` (stereo not drawn) [Compound D215] was run?
A: < 10 nM

Q: Which DC50 (Table 6B) does the source give for `COc1cc(-c2cn(C)c(=O)c3cc(C(=O)NC4C[C@@H]5CN(C(=O)CCN6CCN(c7ccc8c(c7)C(=O)N(C7CCC(=O)NC7=O)C8=O)CC6)C[C@H]45)sc23)cc(OC)c1CN(C)C` (stereo partly drawn) [Compound D63] here?
A: > 100 nM

Q: Which DC50 (Table 6C) does the source give for `COc1cc(-c2cn(C)c(=O)c3cc(C(=O)NC4CC5(CCN(c6ccc7c(c6)C(=O)N(C6CCC(=O)NC6=O)C7)CC5)C4)sc23)cc(OC)c1CN(C)C` (stereo not drawn) [Compound D149] here?
A: < 10 nM

Q: `COc1cc(-c2cn(C)c(=O)c3cc(C(=O)NC4CN(C5CCN(c6ccc7c(c6)C(=O)N(C6CCC(=O)NC6=O)C7)CC5)CC4(F)F)sc23)cc(OC)c1CN(C)C` (stereo not drawn) [Compound D182] was tested. Which DC50 (Table 6C) did it give?
A: < 10 nM

Q: How did the DC50 (Table 6C) turn out when `COc1cc(-c2cn(C)c(=O)c3ccsc23)cc(OC)c1CN1CCN(c2ccc3c(c2)C(=O)N(C2CCC(=O)NC2=O)C3)CC12CCC2` (stereo not drawn) [Compound D176] was run?
A: < 10 nM

Q: Which DC50 (Table 6C) does the source give for `COc1cc(-c2cn(C)c(=O)c3ccsc23)cc(OC)c1CN1[C@H](C)CN(c2ccc3c(c2)C(=O)N(C2CCC(=O)NC2=O)C3)C[C@H]1C` (stereo partly drawn) [Compound D144] here?
A: < 10 nM

Q: Which DC50 (Table 6C) does the source give for `COc1cc(-c2cn(C)c(=O)c3cc(C(=O)NC4CCN(C)CC4(F)F)sc23)cc(OC)c1CN1CC(CN2CCC3(CC2)CN(c2ccc4c(c2)CN(C2CCC(=O)NC2=O)C4=O)C3)C1` (stereo not drawn) [Compound D104] here?
A: < 10 nM

Q: `COc1cc(-c2cn(C)c(=O)c3ccsc23)cc(OC)c1C1CCN(c2ccc3c(c2)C(=O)N(C2CCC(=O)NC2=O)C3)C1` (stereo not drawn) [Compound D122] was tested. Which DC50 (Table 6C) did it give?
A: < 10 nM

Q: Which DC50 (Table 6C) does the source give for `COc1cc(-c2cn(C)c(=O)c3sccc23)cc(OC)c1CN1CCC2(CC1)CN(c1ccc3c(c1)C(=O)N(C1CCC(=O)NC1=O)C3)C2` (stereo not drawn) [Compound D207] here?
A: < 10 nM

Q: For `COc1cc(-c2cn(C)c(=O)c3cc(C(=O)NCC4CC5(CCN(CCN6CCN(c7ccc8c(c7)C(=O)N(C7CCC(=O)NC7=O)C8=O)CC6)CC5)CO4)sc23)cc(OC)c1CN(C)C` (stereo not drawn) [Compound D50], which DC50 (Table 6B) is on record?
A: < 10 nM

Q: How did the DC50 (Table 6C) turn out when `COc1cc(-c2cn(C)c(=O)c3ncsc23)cc(OC)c1CN1CC(Oc2ccc3c(c2)C(=O)N(C2CCC(=O)NC2=O)C3)C1` (stereo not drawn) [Compound D212] was run?
A: < 10 nM

Q: `COc1cc(-c2cn(C)c(=O)c3cc(C(=O)NC4CCC5CN(CCCN6CCN(c7ccc8c(c7)C(=O)N(C7CCC(=O)NC7=O)C8=O)CC6)CC54)sc23)cc(OC)c1CN(C)C` (stereo not drawn) [Compound D37] was tested. Which DC50 (Table 6B) did it give?
A: < 10 nM

Q: Which DC50 (Table 6B) does the source give for `COc1cc(-c2cn(C)c(=O)c3cc(C(=O)NC4CCN(C(=O)CN5CCC6(C5)CN(c5ccc7c(c5)C(=O)N(C5CCC(=O)NC5=O)C7=O)C6)CC4(F)F)sc23)cc(OC)c1CN(C)C` (stereo not drawn) [Compound D45] here?
A: > 1000 nM

Q: With `COc1cc(-c2cn(C)c(=O)c3cc(C(=O)NC4CC5(C4)CN(CCCN4CCN(c6ccc7c(c6)C(=O)N(C6CCC(=O)NC6=O)C7=O)CC4)C5)sc23)cc(OC)c1CN(C)C` (stereo not drawn) [Compound D75] as the compound, how does the DC50 (Table 6B) read?
A: < 10 nM

Q: With `COc1cc(-c2cn(C)c(=O)c3cc(C(=O)NC4CCN(C(=O)c5csc(C(=O)c6c[nH]c7ccccc67)n5)CC4(F)F)sc23)cc(OC)c1CN(C)C` (stereo not drawn) [DD1] as the compound, how does the DC50 (Table 6C) read?
A: > 1000 nM

Q: How did the DC50 (Table 6C) turn out when `COc1cc(-c2cn(C)c(=O)c3cc(C(=O)N[C@H]4CCN(C5CCN(c6ccc7c(c6)C(=O)N([C@@H]6CCC(=O)NC6=O)C7)CC5)CC4(F)F)sc23)cc(OC)c1CN(C)C` [Compound D140] was run?
A: < 10 nM

Q: Which DC50 (Table 6B) does the source give for `COc1cc(-c2cn(C)c(=O)c3cc(C(=O)NC4CCN(C(=O)CCN5CCN(c6ccc7c(c6)C(=O)N(C6CCC(=O)NC6=O)C7=O)CC5)CC4)sc23)cc(OC)c1CN(C)C` (stereo not drawn) [Compound D78] here?
A: < 10 nM

Q: `COc1cc(-c2cn(C)c(=O)c3cc(C(=O)NC4CCN(CCCCCOc5ccc6c(c5)C(=O)N(C5CCC(=O)NC5=O)C6=O)CC4(F)F)sc23)cc(OC)c1CN(C)C` (stereo not drawn) [Compound D90] was tested. Which DC50 (Table 6B) did it give?
A: < 10 nM

Q: With `COc1cc(-c2cn(C)c(=O)c3cc(C(=O)NC4CCN(c5ccc6c(c5)C(=O)N(C5CCC(=O)NC5=O)C6)CC4(F)F)sc23)cc(F)c1CN(C)C` (stereo not drawn) [Compound D118] as the compound, how does the DC50 (Table 6C) read?
A: < 10 nM

Q: `COc1cc(-c2cn(C)c(=O)c3cc(C(=O)NC4CC5(CCN(C(=O)CCN6CCN(c7ccc8c(c7)C(=O)N(C7CCC(=O)NC7=O)C8=O)CC6)CC5)C4)sc23)cc(OC)c1CN(C)C` (stereo not drawn) [Compound D40] was tested. Which DC50 (Table 6B) did it give?
A: < 10 nM

Q: With `COc1cc(-c2cn(C)c(=O)c3cc(C(=O)NC4CC5(CCN(C(=O)CCN6CCN(c7ccc8c(c7)C(=O)N(C7CCC(=O)NC7=O)C8=O)CC6)C5)C4)sc23)cc(OC)c1CN(C)C` (stereo not drawn) [Compound D72] as the compound, how does the DC50 (Table 6B) read?
A: < 10 nM

Q: `COc1cc(-c2cn(C)c(=O)c3cc(C(=O)NCC4CC5(CCN(C(=O)CCN6CCN(c7ccc8c(c7)C(=O)N(C7CCC(=O)NC7=O)C8=O)CC6)CC5)O4)sc23)cc(OC)c1CN(C)C` (stereo not drawn) [Compound D61] was tested. Which DC50 (Table 6B) did it give?
A: > 100 nM

Q: `COc1cc(-c2cn(C)c(=O)c3cc(C)sc23)cc(OC)c1CN1CCC(CN2CCC3(CC2)CC(Oc2ccc4c(c2)C(=O)N(C2CCC(=O)NC2=O)C4=O)C3)CC1` (stereo not drawn) [Compound D173] was tested. Which DC50 (Table 6C) did it give?
A: < 10 nM

Q: How did the DC50 (Table 6C) turn out when `COc1cc(-c2cn(C)c(=O)c3cc(C(=O)NC4CCN(C5CCN(c6ccc7c(c6)C(=O)N(C6CCC(=O)NC6=O)C7)CC5)CC4)sc23)cc(OC)c1CN(C)C` (stereo not drawn) [Compound D150] was run?
A: < 10 nM
